The values that follow are results of earlier work, collected in patent US12533334B2, “Compositions and methods for modulating equine fatty acid profiles” (KENTUCKY EQUINE RESEARCH, INC., priority 2021, dated 2026).

In the data set the test system is aspirin-induced gastric hemorrhage. The settings on record: rats subjected to aspirin-induced gastric hemorrhage, dietary supplementation.

On to `CCCCC/C=C\C/C=C\CCCCCCCC(=O)O` [LA, linoleic acid], for which the Gastric hemorrhage is 3 of 8.

Regarding `CCCCC/C=C\C/C=C\C/C=C\CCCCC(=O)O` [GLA, gamma linolenic acid], the Gastric hemorrhage entry is on record as “no gastric hemorrhage”.
